Here are results for two compounds from patent US20110150821A1, “METHODS AND CROSSLINKED POLYMER COMPOSITIONS FOR CARTILAGE REPAIR” (ANGIOTECH PHARMACEUTICALS (US), INC., priority 2004, published 2011).

For data set [1] the following is noted: cited from earlier work.
Data set [2] deals with Chick Chorioallantoic Membrane (CAM) vasculature. As to the kind of experiment: Chick chorioallantoic membrane (CAM) angiogenesis assay. The note with it: for INHIBITION/N: 48 hours exposure; for effect on angiogenesis: 48 hours after application to the CAM.
[3] abbreviates: within 48 hours, depending on concentration.

For the compound `O=C1c2c(O)ccc(O)c2C(=O)c2c(NCCNCCO)ccc(NCCNCCO)c21` [mitoxantrone], the solubility in water result in data set [1] is recorded as “insoluble in water”. Also, the figures for the INHIBITION/N in data set [2] (1 μg in methylcellulose (10 μl) disk on CAM), in data set [2] (5 μg in methylcellulose (10 μl) disk on CAM) and in data set [2] (10 μg in methylcellulose (10 μl) disk on CAM) were 18/24, 21/24 and 18/22, respectively. Besides, the effect on angiogenesis entry in data set [2] is “angiogenesis was inhibited”. In addition, the “maximal avascular zone diameter” value in data set [2] (setting [3]) is given as 6 mm. In addition, in data set [2] (setting [3]), the “maximal avascular zone on the avascular gradient scale” value is reported as 3.

With `CC(=O)O[C@H]1C(=O)[C@@]2(C)[C@H]([C@H](OC(=O)c3ccccc3)[C@]3(O)C[C@H](OC(=O)[C@H](O)[C@@H](NC(=O)c4ccccc4)c4ccccc4)C(C)=C1C3(C)C)[C@]1(OC(C)=O)CO[C@@H]1C[C@@H]2O` [paclitaxel], the effect on angiogenesis result in data set [2] was “angiogenesis was inhibited”. Further, the “maximal avascular zone on the avascular gradient scale” value in data set [2] (setting [3]) came out at 3.
